Test results reported in patent US4855303A, “Fluorine containing renin inhibitors” (Pfizer Inc., priority 1988, dated 1989).

Target: T1, renin (Homo sapiens, UniProt P00797)
T1 sequence (P00797 67-406): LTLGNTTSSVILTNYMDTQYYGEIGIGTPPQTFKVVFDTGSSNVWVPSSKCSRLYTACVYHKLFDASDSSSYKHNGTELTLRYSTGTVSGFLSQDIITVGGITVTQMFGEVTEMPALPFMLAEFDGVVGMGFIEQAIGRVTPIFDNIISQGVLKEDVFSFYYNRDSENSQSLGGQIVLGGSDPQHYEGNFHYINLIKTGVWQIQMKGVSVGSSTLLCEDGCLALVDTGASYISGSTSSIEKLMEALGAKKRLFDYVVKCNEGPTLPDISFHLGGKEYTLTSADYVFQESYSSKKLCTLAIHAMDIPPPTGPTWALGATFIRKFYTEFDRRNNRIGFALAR
Experiment: renin inhibitory potency
Type: biochemical
Settings: 2S,5S product compared with the 2R,5R isomer separated by HPLC
Description: The activity of the compounds of the present invention as inhibitors of the angiotensinogen-cleaving activity of renin may be determined by studying (1) their ability to inhibit the angiotensinogen-cleaving activity of renin in vitro and (2) their ability to antagonize the exogenous renin-induced pressor response in vivo.

**Q.** With `CCCC[C@H](NC(=O)[C@H](Cc1ccccc1)NC(=O)N1CCOCC1)C(=O)N[C@@H](CC1CCCCC1)C(=O)C(F)(F)[C@@H](CC(C)C)C(=O)OCC` [Example 10, Ethyl (2S,5S)-2-isobutyl-3,3-difluoro-4-keto-5-N-(N-[morpholinocarbonyl-L-phenylalanyl]-L-norleucyl)-amino-6-cyclohexylhexanoate] as the molecule, how does the renin inhibitory potency read?
**A.** more active
